Reference: patent US20100016434A1, “Inhibitors of Egln3 Activity for the Treatment of Neurodegenerative Disorders” (priority 2005, published 2010)

How the values were obtained:
PC12 cells [1] = experiment: Apoptosis after NGF withdrawal in differentiated PC12 cells (GFP-Histone nuclei scoring); assay type: cell-based, rat
Experimental: FIG. 5: (A) Anti-SM20/EGLN3 immunoblot analysis of PC12 cells treated as in FIG. 3A. SM-20 in vitro translate included in lane 1 as a control. (B and D) Representative fluorescent photomicrographs (B) and anti-HA immunoblot analysis (D) of PC12 cells transfected to produce GFP-Histone and the indicated HA-EGLN species. White arrows in […] indicate apoptotic nuclei. (C) Percent of GFP-positive nuclei with apoptotic changes after transfection with 0.5 or 1.0 μg of the indicated plasmids. (E and F) Representative fluorescent photomicrographs of PC12 cells transfected with the indicated siRNAs and a plasmid encoding GFP-Histone followed by treatment with NGF for […] (‘+NGF’), which was then withdrawn for 24 hours (‘−NGF’). White arrows indicate apoptotic nuclei, which were quantitated in (E) as percent of GFP-positive nuclei. (G and H) Representative fluorescent photomicrographs (F) of PC12 cells transfected to produce GFP-Histone and treated with NGF for 5 days (‘+NGF’), which was then withdrawn for 24 hours (‘−NGF’). Where indicated cells were exposed to 100 μM CoCl2 or 1% hypoxia during NGF withdrawal. White arrows indicate apoptotic nuclei, which were quantitated in (G) as % of GFP-positive nuclei.
(§1) (B) FACS profiles of PC12 cells stained with the ROS-sensitive dye CM-H2DCFDA after treatment with the indicated SDH inhibitors or the ROS-inducing agent Rotenone (Ro; 20 μM) in the presence or absence of the ROS scavenger ascorbic acid (AA; 100 μM). C=control. (C and D) Representive fluorescent photomicrographs of PC12 cells (C) transfected to produce GFP-Histone alone (GFP-His) or GFP-Histone and EGLN3 (EGLN3). The SDH inhibitors 3-NPA (300 t-IM), MA (300 I-LM), or TTFA (200 ˜M) were added where indicated. White arrows indicate apoptotic nuclei, which were quantitated in (D) as percent of GFP-positive nuclei. (E) Immunoblot analysis of PC12 cells treated with the indicated chemicals or vehicle (C). (F) Percent of GFP-positive PC12 nuclei undergoing apoptosis after transfection to produce GFP-Histone alone (GFP-His) or GFP-Histone and EGLN3 (EGLN3) in the presence or absence of SDH inhibitors. 100 μM AA was also present where indicated. (G) Percent of GFP-positive PC 12 nuclei undergoing apoptosis after transfection with the indicated siRNAs and a plasmid encoding GFP-Histone followed by treatment with NGF for 5 days (‘+NGF’), which was then withdrawn for 24 hours (‘−NGF’). […]
Undifferentiated PC12 cells were plated onto collagen-coated 6-well plates 1 day before transfection with LIPOFECTAMINE 2000 reagent (Invitrogen) according to the manufacturer's instructions. […] Nuclei that were condensed or fragmented were scored as apoptotic. Approximately 400 cells were scored for each set of conditions and all assays were performed in triplicate.

EGLN3 = biological target: T1, EGLN3 (Homo sapiens, UniProt Q9H6Z9); experiment: EGLN3 hydroxylation assay: HIF1α-derived peptide, capture of 35S-labeled pVHL; assay type: biochemical; conditions: increasing amount of succinate; EGLN3 in vitro translate
T1 construct: HA; made in house; host or cells: in vitro translation in reticulocyte lysate

JunB = experiment: Immunoblot analysis of JunB in 786-O renal carcinoma subclones; assay type: cell-based, human; conditions: 786-O cells treated with PKC inhibitor
Experimental: FIG. 2: (A) Immunoblot analysis of 786-O VHL(−/−) renal carcinoma cells retrovirally infected to produce the indicated short hairpin RNAs (shRNA) or wild-type pVHL (VHL). (B) Immunoblot analyis of RC3 cells and WT7 cells; where indicated, WT7 cells were treated with DFO or infected to produce HIF2α P405A; P531A or with empty retrovirus. (C) Immunoblot analysis of indicated 786-O subclones grown in presence or absence of DFO; (*)=non-specific band. (D) Immunoblot analysis of A498 and 786-O cells transfected to produce the indicated HA-pVHL variants or with empty vector. Arrow indicates a slowly migrating form of aPKC. (E) In vitro aPKC activity. Anti-aPKC immunoprecipitates of the indicated cell lines under antibody excess conditions were incubated with a peptidic aPKC substrate in the presence of ^32P-γ-ATP. Shown are incorporated ^32P values. (F) Immunoblot analysis of 786-O cells treated with the PKC inhibitor GF109230X.
Twenty μg of nuclear extract per lane, prepared using a NE-PER extraction kit (Pierce Biotechnology, Inc., Rockford Ill.) and measured by the Bradford assay, was resolved on 10% or 12% SDS-PAGE gels and transferred to nitrocellulose membrane (Bio-Rad Laboratories, Hercules Calif.) to detect endogenous JunB and HIF2α. […] Bound protein was detected with a Horseradish Peroxidase (HRP)-conjugated secondary antibodies and an enhanced chemiluminesence kit (Pierce).

HIF2α = experiment: Immunoblot analysis of HIF2α in 786-O cells; assay type: cell-based, human; conditions: 786-O cells treated with PKC inhibitor
Text: (A and B) Immunoblot analysis of 786-O cells treated with the PKC inhibitor GF109230X.
Twenty μg of nuclear extract per lane, prepared using a NE-PER extraction kit (Pierce Biotechnology, Inc., Rockford Ill.) and measured by the Bradford assay, was resolved on 10% or 12% SDS-PAGE gels and transferred to nitrocellulose membrane (Bio-Rad Laboratories, Hercules Calif.) to detect endogenous JunB and HIF2α. After blocking in TBS with 5% nonfat milk, the membranes were probed with anti-JunB monoclonal antibody (C-11; Santa Cruz Biotechnology, Inc., Santa Cruz Calif.) or anti-HIF2α rabbit polyclonal antibody (NB100-122; Novus Biologicals, Inc., Littleton Colo.). Bound protein was detected with a Horseradish Peroxidase (HRP)-conjugated secondary antibodies and an enhanced chemiluminesence kit (Pierce).

PC12 cells [2] = experiment: EGLN3-induced apoptosis in transfected undifferentiated PC12 cells (GFP-Histone nuclei scoring); assay type: cell-based, rat; conditions: coadministration of 100 μM AA with SDH inhibitors
Experimental: as §1, with “indicated.” for “indicated. (G) Percent of GFP-positive PC 12 nuclei undergoing apoptosis after transfection with the indicated siRNAs and a plasmid encoding GFP-Histone followed by treatment with NGF for 5 days (‘+NGF’), which was then withdrawn for 24 hours (‘−NGF’).”
Undifferentiated PC12 cells were plated onto collagen-coated 6-well plates 1 day before transfection with LIPOFECTAMINE 2000 reagent (Invitrogen) according to the manufacturer's instructions. […] Nuclei that were condensed or fragmented were scored as apoptotic. Approximately 400 cells were scored for each set of conditions and all assays were performed in triplicate. […]

PC12 cells [3] = experiment: ROS analysis by FACS with CM-H2DCFDA; assay type: cell-based, rat; conditions: 100 μM AA
Experimental: (B) FACS profiles of PC12 cells stained with the ROS-sensitive dye CM-H2DCFDA after treatment with the indicated SDH inhibitors or the ROS-inducing agent Rotenone (Ro; 20 μM) in the presence or absence of the ROS scavenger ascorbic acid (AA; 100 μM). C=control. (C and D) Representive fluorescent photomicrographs of PC12 cells (C) transfected to produce GFP-Histone alone (GFP-His) or GFP-Histone and EGLN3 (EGLN3). The SDH inhibitors 3-NPA (300 t-IM), MA (300 I-LM), or TTFA (200 ˜M) were added where indicated. White arrows indicate apoptotic nuclei, which were quantitated in (D) as percent of GFP-positive nuclei. (E) Immunoblot analysis of PC12 cells treated with the indicated chemicals or vehicle (C). (F) Percent of GFP-positive PC12 nuclei undergoing apoptosis after transfection to produce GFP-Histone alone (GFP-His) or GFP-Histone and EGLN3 (EGLN3) in the presence or absence of SDH inhibitors. 100 μM AA was also present where indicated. (G) Percent of GFP-positive PC 12 nuclei undergoing apoptosis after transfection with the indicated siRNAs and a plasmid encoding GFP-Histone followed by treatment with NGF for 5 days (‘+NGF’), which was then withdrawn for 24 hours (‘−NGF’).
PC12 cells were incubated for 1 hr with 5 μM CM-H2DCFDA (Molecular Probes), harvested, resuspended at 10^6 cells/ml in PBS supplemented with 7% FBS, and analyzed by FACS.

[4] = SDH inhibitors 300 μM, NGF withdrawn for 24 hours

T1 sequence (Q9H6Z9 whole entry): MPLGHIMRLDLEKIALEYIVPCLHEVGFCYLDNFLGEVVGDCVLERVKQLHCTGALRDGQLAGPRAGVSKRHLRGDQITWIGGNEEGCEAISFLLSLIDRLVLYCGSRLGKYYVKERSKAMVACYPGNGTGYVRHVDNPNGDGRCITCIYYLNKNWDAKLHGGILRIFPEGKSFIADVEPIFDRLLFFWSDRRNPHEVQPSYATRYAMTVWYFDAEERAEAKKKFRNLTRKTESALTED

## O=C(O)CC(=O)O [MA, malonic acid]
PC12 cells [1]; [4]
  Apoptosis after NGF withdrawal: diminished apoptosis

## O=C(O)CCC(=O)C(=O)O [2-OG, 2-oxoglutarate]
PC12 cells [1]; 0.5 mM 2-oxoglutarate added to the media 24 hours before NGF withdrawal
  Apoptosis after NGF withdrawal in SDH D siRNA-transfected cells: partially restored

## O=C(O)CCC(=O)O [succinate]
EGLN3
  EGLN3 hydroxylase activity: diminished

## CN(C)CCCn1cc(C2=C(c3c[nH]c4ccccc34)C(=O)NC2=O)c2ccccc21 [GF109203X]
JunB
  JunB levels: downregulated
HIF2α
  HIF2α levels: does not affect

## [Cl][Co][Cl] [cobalt chloride]
PC12 cells [1]; 100 μM CoCl2 during NGF withdrawal, 24 hours
  Apoptosis after NGF withdrawal: decreased

## O=C(O)CC[N+](=O)[O-] [3-NPA, 3-nitroproprionic acid]
PC12 cells [1]; [4]
  Apoptosis after NGF withdrawal: diminished apoptosis

## O=C1O[C@H]([C@@H](O)CO)C(O)=C1O [ascorbic acid]
PC12 cells [2]
  Effect on the action of the SDH inhibitors on EGLN3-induced apoptosis: failed to mitigate
PC12 cells [3]
  ROS induction by SDH inhibitors: blocking ROS induction
